One data set concerns weed plants. Kind of data set: Greenhouse herbicidal effect in weed control ex. 6.2 (Tables 34 to 37). The class given is in vivo. To be noted: post-emergence; for Herbicidal effect (%) 7 DAT on Trifolium pratense: 3-leaves stage. On the procedure: (§1) When the data observed already exceed the formal total (=E^A) of the data in the experiments with individual applications, they likewise exceed the expected value according to Colby, which is calculated using the formula below and is likewise regarded as an indication of synergism (cf. S. R. Colby; in Weeds 15 (1967) pp. 20 to 22): E=A+B−(A·B/100)

For data set [1], the system named is monocotyledonous and dicotyledonous weed plants. The experiment in a line: Field trial ex. 7.1, weed control in pre-emergence application, 12 DAT (Tables 38, 39). The format is in vivo. On the procedure: as §1
Seeds or rhizome pieces of monocotyledonous and dicotyledonous weed plants were placed in the field in sandy loam soil and covered with soil. […] 12 days after application (12 DAT), the herbicidal effect on the developed weed plants was visually evaluated as percent (%) herbicidal effect compared to untreated control plants.

A further data set concerns Cynodon dactylon. Kind of data set: Greenhouse selectivity testing ex. 6.1, turf grass plants in 1-leaf stage, % injury. The procedure:
Turf grass plants were grown in sandy loam soil in the greenhouse under good growing conditions up to the 1-leaf stage. In parallel tests, a formulation (water-dispersable powder) containing a mixture of the compounds no. […] The turf grass plants were further kept under good growing conditions. 7 days after application the selectivity was visually evaluated as percent (%) injury compared to untreated control plants.

In the next data set the test system is Capsella bursa pastoris. The experiment in a line: Greenhouse herbicidal effect in weed control ex. 6.2, 2- to 3-leaves stage. The class given is in vivo.
Description: (§2) That means, when applying the combinations according to the invention, herbicidal effects are observed on a harmful plant species which exceed the formal total of the effects of the herbicides present when these are applied by themselves. Alternatively, it is observed in some cases that a lower application rate is required for the herbicide combination in order to achieve the same effect on a harmful plant species in comparison with the individual products.
as §1
(§3) In this formula: • A=action of active compound (A) in % at an application rate of a g of AS/ha; • B=action of active compound (B) in % at an application rate of b g of AS/ha; • E=expected value of the action of the combination (A)+(B) in % at the combined application rate a+b g of AS/ha.
(§4) The data observed in the experiments show, at suitably low dosages, an action of the combinations which exceeds the expected values according to Colby (=E^C).

A further data set relates to Taraxacum officinalis. The experiment in a line: Greenhouse herbicidal effect in weed control ex. 6.2, 1- to 2-leaves stage. The class given is in vivo.
Description: as §2, §1, §3, §4

The subject of data set [2] is monocotyledonous and dicotyledonous weed plants. Kind of data set: Field trial ex. 7.2, weed control in post-emergence application (Table 40). The class given is in vivo. The settings on record: 2-leaves stage, 12 DAT. On the procedure: as §1, §3
(§5) Seeds or rhizome pieces of monocotyledonous and dicotyledonous weed plants and specific warm season turf grasses were placed in the field in sandy loam soil, covered with soil and grown until the plants had reached the leaves stage indicated in the tables. […] The herbicidal effect was visually evaluated as percent (%) herbicidal effect compared to untreated control plants. The results are summarized in Table 40 below and show a synergistic increase in herbicidal effect of the mixtures of active ingredients and a good safety of the turf grass.

For data set [3], the system named is specific warm season turf grasses. The experiment in a line: Field trial ex. 7.2, turf grass safety in post-emergence application (Table 40). The class given is in vivo.
Description: as §5

Where [4] appears, read: Cynodon dactylon, in vivo, 7 days after application.

Marks after values point to notes of the source that are not given here.

Data on 14 molecules can be found in patent US8426342B2, “Method for weed control in lawn” (priority 2008, dated 2013).

As for `CCOC(=O)[C@@H](C)Oc1ccc(Oc2nc3ccc(Cl)cc3o2)cc1` [Fenoxaprop-P-ethyl], the “Herbicidal effect (%) 7 DAT on Trifolium pratense” value in the data set with weed plants (45 g a.i./ha) is reported as 0%. Moreover, the “Herbicidal effect (%) 12 DAT on Brachiaria decumbens” value (shortened to “Herbicidal effect (%) 12 DAT”) in data set [1] (Table 39, field, 60 g a.i./ha) is 0%.

For `CCS(=O)(=O)c1cccnc1S(=O)(=O)NC(=O)Nc1nc(OC)cc(OC)n1` [Rimsulfuron, reference compound], in the data set with weed plants (5 g a.i./ha), the “Herbicidal effect (%) 7 DAT on Trifolium pratense” value is on record as 40%. For the same molecule, in the data set with Cynodon dactylon (setting [4]), the “Selectivity evaluation (% injury) 7 DAT on Cynodon dactylon” value (“Selectivity evaluation (% injury) 7 DAT” below) came to 10%.

With `CCOc1ccccc1OS(=O)(=O)NC(=O)Nc1nc(OC)cc(OC)n1` [Ethoxysulfuron], the “Herbicidal effect (%) 12 DAT” value in data set [1] (Table 38, field, 30 g a.i./ha) came to 0%. Further, in the data set with Capsella bursa pastoris (20 g a.i./ha), the “Herbicidal effect (%) 7 DAT on Capsella bursa pastoris” value was determined as 50%. In addition, the “Selectivity evaluation (% injury) 7 DAT” value with Cynodon dactylon (setting [4]) is on record as 0%.

With `COc1cc(OC)n2nc(S(=O)(=O)Nc3c(Cl)ccc(C)c3Cl)nc2n1` [Metosulam], the “Herbicidal effect (%) 7 DAT on Taraxacum officinalis” value in the data set with Taraxacum officinalis (10 g a.i./ha) came out at 10%. Further, the “Selectivity evaluation (% injury) 7 DAT” value in the data set on Cynodon dactylon (setting [4]) is given as 0%.

As to `Nc1c(Cl)c(Cl)nc(C(=O)O)c1Cl` [Picloram, reference compound], the “Herbicidal effect (%) 7 DAT on Echinocloa crus-galli” value with weed plants (3- to 4-leaves stage, 300 g a.i./ha) turned out to be 30%. Besides, the “Selectivity evaluation (% injury) 7 DAT” value in the data set on Cynodon dactylon (300 g a.i./ha, 7 DAT, greenhouse, 1-leaf stage) was determined as 0%.

In the case of `Nc1c(Cl)c(F)nc(OCC(=O)O)c1Cl` [Fluroxypyr], the “Herbicidal effect (%) 7 DAT on Capsella bursa pastoris” value in the data set on Capsella bursa pastoris (100 g a.i./ha) was 60%. The “Selectivity evaluation (% injury) 7 DAT” value in the data set with Cynodon dactylon (setting [4]) was found to be 0%.

In the case of `N#Cc1cc(Br)c(O)c(Br)c1` [Bromoxynil], the “Herbicidal effect (%) 7 DAT on Capsella bursa pastoris” value in the data set on Capsella bursa pastoris (100 g a.i./ha) was 30%.

Consider `COC(=O)c1ccccc1S(=O)(=O)NC(=O)Nc1nc(C)nc(OC)n1` [Metsulfuron-methyl], for which the “Herbicidal effect (%) 7 DAT on Trifolium pratense” value with weed plants (5 g a.i./ha) is on record as 30%.

As for `COC(=O)c1ccc(CNS(C)(=O)=O)cc1S(=O)(=O)NC(=O)Nc1nc(OC)cc(OC)n1` [Mesosulfuron-methyl, reference compound], in data set [2] (5 g a.i./ha), the “Herbicidal effect (%) on Commelina benghalensis” value came to 47%. The “Herbicidal effect (%) 12 DAT” value in data set [1] (Table 38, field, 5 g a.i./ha) is on record as 0%. For the same molecule, the “Herbicidal effect (%) on Paspalum notatum (warm season turf grass)” value in data set [3] (in vivo) is recorded as 0%. Besides, the “Selectivity evaluation (% injury) 7 DAT” value in the data set with Cynodon dactylon (5 g a.i./ha, 7 DAT, greenhouse, 1-leaf stage) stood at 0%.

Turning to `CCOC(=O)C(Cl)Cc1cc(-n2nc(C)n(C(F)F)c2=O)c(F)cc1Cl` (stereo not drawn) [Carfentrazone-ethyl], in data set [2] (15 g a.i./ha), the “Herbicidal effect (%) on Commelina benghalensis” value came out at 59%. For the same molecule, in the data set on weed plants (8 g a.i./ha), the “Herbicidal effect (%) 7 DAT on Trifolium pratense” value was 0%. In data set [1] (Table 39, field, 15 g a.i./ha), the “Herbicidal effect (%) 12 DAT” value turned out to be 0%. In addition, in data set [3] (field, post-emergence, 3-leaves stage, 15 g a.i./ha, 7 DAT), the “Herbicidal effect (%) on Paspalum notatum (warm season turf grass)” value is given as 0%.

For `Cc1cc(Cl)ccc1O[C@@H](C)C(=O)O` [Mecoprop-P], the “Herbicidal effect (%) 7 DAT on Taraxacum officinalis” value with Taraxacum officinalis (500 g a.i./ha) is 20%.

For the molecule `O=C(O)CNCP(=O)([O-])O.[K+]` [Glyphosate-potassium salt (K salt)], the “Herbicidal effect (%) on Commelina benghalensis” value in data set [2] (620 g a.i./ha) and in data set [2] (840 g a.i./ha) was 62% in each case. The “Herbicidal effect (%) 12 DAT” value came to 0% in data set [1] (Table 39, field, 620 g a.i./ha) and 0% in data set [1] (Table 39, field, 840 g a.i./ha). Moreover, the “Herbicidal effect (%) on Paspalum notatum (warm season turf grass)” value is 23^5) % in data set [3] (field, post-emergence, 3-leaves stage, 620 g a.i./ha, 7 DAT, turf grass used is not glyphosate tolerant) and 40^5) % in data set [3] (field, post-emergence, 3-leaves stage, 840 g a.i./ha, 7 DAT, turf grass used is not glyphosate tolerant).

With `O=C(O)CNCP(=O)(O)O` [Glyphosate], in the data set on Taraxacum officinalis (200 g a.i./ha), the “Herbicidal effect (%) 7 DAT on Taraxacum officinalis” value is on record as 40%.

As to `Cc1cc(Cl)ccc1OCC(=O)O` [MCPA, reference compound], in the data set on weed plants (500 g a.i./ha), the “Herbicidal effect (%) 7 DAT on Trifolium pratense” value stood at 30%. Moreover, the “Selectivity evaluation (% injury) 7 DAT” value with Cynodon dactylon (500 g a.i./ha, 7 DAT, greenhouse, 1-leaf stage) is 0%.
